Data set [1] deals with primary cortical neurons. The data set can be described thus: LDH release of primary cortical neurons subjected to oxygen glucose deprivation (OGD). The data set is classed as cell-based, mouse. To be noted: comparison with F4; concentration not given. As to the method: Lactate dehydrogenase is a stable cytosolic enzyme that is released by necrotic cells upon membrane damage. The membrane integrity of cortical neurons was assayed by measuring the release of lactate dehydrogenase (LDH) using the Cytotoxicity Detection Kit^PLUS (Roche Applied Science). This assay kit detects LDH released into culture supernates by a coupled enzymatic reaction. Positive (100% LDH release) and negative (spontaneous LDH release) controls were prepared in triplicate according to the manufacturer's instructions. Primary cortical neuron cultures were prepared from cerebral cortices of embryonic day 16 CD1 mouse embryos. Cortical neuron cultures were exposed to vehicle (0.1% dimethyl sulfoxide (DMSO)) or F4 at concentrations of 1, 0.1 or 0.01 μg/mL in serum-free conditions for a period of 12 h before they were subjected to oxygen glucose deprivation (OGD). The neurons were exposed to vehicle or F4 at concentrations of 1, 0.1 or 0.01 μg/mL phenolics throughout the 12 h period of OGD. Following, cell culture supernates were collected for determination of released LDH. Absorbance was measured at 490 nm with a reference wavelength of 620 nm. Percentage of total LDH release was calculated by following the instructions provided by the manufacturer. Background was subtracted and LDH release in each sample was expressed as a percentage of the positive control.

For data set [2] the following is noted: humans, 1 g per day for 1 month; cited from earlier work.

For the molecule `COc1cc(-c2oc3cc(O)cc(O)c3c(=O)c2O[C@@H]2O[C@H](C(=O)O)[C@@H](O)[C@H](O)[C@H]2O)ccc1O` [IR3GlcA], in data set [1], the “reduction of death of primary cortical neurons subjected to OGD (F4 components and metabolites, FIG. 7)” value (“reduction” for short) is listed as “no significant reduction”.
Turning to `O=c1c(O)c(-c2ccc(O)c(O)c2)oc2cc(O)cc(O)c12` [Q, Quercetin], the “reduction” value in data set [1] is “no significant reduction”. Also, the safety entry in data set [2] is “safe”.
In the case of `O=c1c(O[C@@H]2O[C@H](CO)[C@@H](O)[C@H](O)[C@H]2O)c(-c2ccc(O)c(O)c2)oc2cc(O)cc(O)c12` [Fraction Q3G, quercetin 3-O-glucoside], the “reduction” value in data set [1] was “no significant reduction”.

The record behind these values is patent US9511107B2, “Phenolic compositions derived from apple skin and uses thereof” (priority 2010, dated 2016).
